Measured values from ChEMBL document CHEMBL5512623, “Discovery of the novel and potent histamine H1 receptor antagonists for treatment of allergic diseases” (Eur J Med Chem, 2024).

Legend:
[1] = target: Muscarinic acetylcholine receptor M3 (Homo sapiens, UniProt P20309); experiment: Antagonist activity at human muscarinic M3 receptor expressed in PathHunter U2OS CHRM3 beta-arrestin cells preincubated for 30 mins followed by agonist addition at 6 times EC80 and measured after 90 to 180 mins by PathHunter assay; format: functional, cell-based
Sequence of Muscarinic acetylcholine receptor M3 (P20309 whole entry): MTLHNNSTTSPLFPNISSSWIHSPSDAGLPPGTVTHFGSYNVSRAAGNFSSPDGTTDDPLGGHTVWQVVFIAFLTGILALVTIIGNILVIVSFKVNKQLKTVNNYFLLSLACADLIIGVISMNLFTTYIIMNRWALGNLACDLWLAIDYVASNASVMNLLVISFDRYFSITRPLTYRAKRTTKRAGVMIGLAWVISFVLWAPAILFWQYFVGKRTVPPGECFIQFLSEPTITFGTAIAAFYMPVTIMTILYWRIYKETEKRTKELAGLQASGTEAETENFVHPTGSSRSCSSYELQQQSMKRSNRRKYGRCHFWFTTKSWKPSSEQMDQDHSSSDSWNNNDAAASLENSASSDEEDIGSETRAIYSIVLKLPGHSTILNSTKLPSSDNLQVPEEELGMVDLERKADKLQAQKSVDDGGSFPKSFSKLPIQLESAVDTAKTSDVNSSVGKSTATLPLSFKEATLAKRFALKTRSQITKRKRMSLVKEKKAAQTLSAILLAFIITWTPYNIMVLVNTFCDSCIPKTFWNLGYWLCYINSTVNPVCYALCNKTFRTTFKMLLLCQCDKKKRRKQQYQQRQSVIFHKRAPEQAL

[2] = target: Histamine H1 receptor (Homo sapiens, UniProt P35367); experiment: Antagonist activity at human H1 receptor expressed in PathHunter CHO-K1 HRH1 beta-arrestin cells preincubated for 30 mins followed by agonist addition at 6 times EC80 and measured after 90 to 180 mins by PathHunter assay; format: functional, cell-based
Sequence of Histamine H1 receptor (P35367 whole entry): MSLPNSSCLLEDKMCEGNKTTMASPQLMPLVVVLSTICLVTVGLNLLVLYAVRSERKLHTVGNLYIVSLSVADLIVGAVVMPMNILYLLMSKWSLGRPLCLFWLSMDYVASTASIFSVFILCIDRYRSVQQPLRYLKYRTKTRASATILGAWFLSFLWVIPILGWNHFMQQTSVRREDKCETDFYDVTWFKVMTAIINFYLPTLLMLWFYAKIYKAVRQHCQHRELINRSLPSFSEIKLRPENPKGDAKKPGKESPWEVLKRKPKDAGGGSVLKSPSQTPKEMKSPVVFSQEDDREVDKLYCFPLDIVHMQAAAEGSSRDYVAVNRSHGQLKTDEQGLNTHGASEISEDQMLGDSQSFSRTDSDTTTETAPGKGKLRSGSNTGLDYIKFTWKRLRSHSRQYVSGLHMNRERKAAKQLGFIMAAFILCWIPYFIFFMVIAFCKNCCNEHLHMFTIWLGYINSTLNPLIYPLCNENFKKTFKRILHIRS

## O=C(O)c1ccc(CCCN2CCC(=C3c4ccc(Cl)cc4CCc4cccnc43)CC2)cc1
[1]
  IC50: > 10 µM

## CC(C)(C(=O)O)c1cccc(CC(O)CN2CCC(=C3c4ccc(Cl)cc4CCc4cccnc43)CC2)c1 (stereo not given)
[2]
  IC50: 0.0572 µM
[1]
  IC50: > 10 µM

## CC(C)(C(=O)O)c1cccc(NCCN2CCC(=C3c4ccc(Cl)cc4CCc4cccnc43)CC2)c1
[1]
  IC50: > 10 µM

## CC(C)(C(=O)O)c1ccccc1CCCN1CCC(=C2c3ccc(Cl)cc3CCc3cccnc32)CC1
[1]
  IC50: > 10 µM
